Measurements: patent US11472844B2, “Peptidomimetics, method of synthesis and uses thereof” (priority 2017, dated 2022)
*: point of attachment. X1 = CC[N+]1=C(/C=C/C=C/C=C2N(CCCCCC(=O)NCCN3C(=O)CC(*)C3=O)c3ccc(S(=O)(=O)O)cc3C2(C)C)C(C)(C)c2cc(S(=O)(=O)[O-])ccc21

Experiments:
[1] = system: colonic mucus layer and infiltrated neutrophils; test: Human colonic explant infected with Shigella flexneri, two-photon microscopy; conditions: 1 μg/mL, after fixation and permeabilization
Description: Ex vivo infection of human colonic tissue. Human colon explants were infected with S. flexneri 5a (M90T) pGFP, as described in (Nothelfer et al. 2014) and adapted from (Coron et al. 2009). Briefly, colonic tissues were cut into ˜5 cm^2 segments and pinned flat, with the submucosa facing down, onto a 4% agarose layer in tissue culture Petri dishes containing DMEM/F12 culture medium (Invitrogen) supplemented with 10% FBS, glutamine, and 2.1 g/L NaHCO3(Sigma-Aldrich). S. flexneri (M90T) 5a pGFP was added at ˜2×10^8 bacteria per cm^2 of tissue. Bacteria were allowed to settle for 15 min at room temperature before incubation at 37° C., 5% CO2 for 6 h on a slowly rocking tray. Tissue was fixed by overnight incubation with 4% PFA (Euromedex) and 0.1 M Hepes (Gibco) in PBS. For whole-mount staining, tissues were fixed on a 40×11-mm tissue culture dish (TPP) with Histoacryl tissue glue (Braun). To obtain 150-μm-thick sections, the tissue was embedded in low-melting agarose according to (Snippert et al. 2011) and cut with a vibratome (VT1000E; Leica).
Two-photons microscopy. […] MUB40-Cy5 was detected using multiphoton excitation (MPE, magenta), Acquisitions were performed with Zen 2008 SP 1.1 software acquisition package developed by ZEISS. […]

[2] = system: human neutrophil granules; test: Fluorescent labelling of fixed purified human neutrophils; type: cell-based; conditions: 1 μg/mL
Method: Fixation and staining procedures. For microscopy studies, purified or cultured cells and polymerized lactoferrin were resuspended onto 24-well plates containing 12 mm coverslips in RMPI 1640+10 mM Hepes (when cultured in the autologous plasma) and centrifuged at 300×g for 10 min. Culture media were removed and cells were fixed in 4% Paraformaldehyde (PFA) for two hours. Fixed cells were washed three times in PBS+0.1% saponin (Sigma-Aldrich), prior immunolabeling with primary antibodies in the same buffer for 1 hour (Triton 0.1% can alternatively be used for cell permeabilization). After three additional washes in PBS+0.1% saponin, secondary antibodies and fluorescent markers were incubated for one hour. Coverslips were washed three time in PBS+0.1% saponin, three times in PBS, and three times in deionized H2O and mounted with prolong gold^tm mounting media.
Antibodies, fluorescent markers. For immunofluorescence assay, lactoferrin was detected with a mouse anti-lactoferrin primary monoclonal antibody (Hycult biotech, clone 265-1K1, 1:50 dilution) and an anti-mouse-FITC conjugated secondary antibody (1:1000). Nuclei were detected with DAPI (Life Technologies), Lyophilized MUB40 peptides (MUB40#1 (SEQ ID NO: 3)-Cy5, MUB40#2 (SEQ ID NO: 4)-Cy5, MUB40#3 (SEQ ID NO: 5)-Cy5, MUB40#4 (SEQ ID NO: 6)-Cy5, MUB40#1 (SEQ ID NO: 3)-Dylight, RI-MUB40 (SEQ ID NO: 2)-Cy5, and RI-MUB40 (SEQ ID NO: 2)-Biotin) were solubilized in a phosphate buffer pH8 at a 1 mg/mL concentration and used at a 1:1000 dilution. For PBMC staining CD19-APC (B lymphocytes), CD3-APC (T lymphocytes), and CD14-PercP (monocytes, macrophages) (BD Bioscience) were used at a 1:1000 dilution together with Dapi (1:1000) and MUB40-Cy5 (1 mg/mL). Actin was stained with Phalloidin-Rhodamine red X (RRX) (Jackson Immunoresearch Antibodies) used at a 1:1000 final dilution.
Polymorphonuclear neutrophils purification. Human polymorphonuclear neutrophils were purified as described previously (Monceaux et al. 2016). Briefly, plasma was removed by centrifugation (450×g, 15 min); blood cells were resuspended in 0.9% NaCl solution supplemented with 0.72% Dextran. After red blood cells sedimentation, white blood cells were pelleted and further separated on a two layer Percoll (GE Healthcare) (51%−42%) by centrifugation (at 240×g, 20 min). PBMC (top layer) were isolated from polymorphonuclear neutrophils (bottom layer). Red blood cells were removed from the latter fraction using CD235a (glycophorin) microbeads (negative selection) (Miltenyi Biotec). PBMCs and polymorphonuclear neutrophils were resuspended in the autologous plasma. Guinea pig and mouse polymorphonuclear neutrophils were purified with the same procedure.
Confocal microscopy. […]

[3] = system: neutrophils recruited to mouse colon infected with Shigella sonnei; test: Mouse model of shigellosis, staining of fixed colon sections; conditions: 1 μg/ml
Method: Mouse. The experimental protocol was approved by the french Ethic Committee Paris (number 20150042). Female 6 week-old BALB/cJRi mice from Charles River were orally gavaged with streptomycin (100 μL of 200 mg/ml solution) 24 hours prior to Shigella sonnei infection. Mice were orally gavaged with 10^10 CFUs S. sonnei carrying pMW211 expressing DsRed and monitored for 24 hours. At the end of the experiment, animals were sacrificed and tissue sections from the colon were extracted. Colon sections were placed in 4% paraformaldehyde (PFA) solution for 2 hours. PFA fixed tissue sections were passaged for 16 hours in 16% sucrose followed by 4 hours in 30% sucrose solutions. Fixed colon slices were embedded in OCT (VWR 361603E) and flash frozen in dry ice chilled 2-methylbutane. Frozen blocks were stored at −80 until sectioning. […] Tissue slices were prepared for fluorescence microscopy by incubation in 0.1% saponin for 1 hour followed by incubation with fluorescent markers specific for actin (phalloidin-FITC, Life Technology) and MUB40-Cy5 at a final 1 μg/ml concentration. […]
Spinning disk microscope. Mouse colons infected with S. sonnei pDsRed were imaged on a Bruker Opterra fluorescence microscope using a Zeiss Plan-Apochromat 63×/1.40 oil immersion lense and Prairie View software version 5.3. […]

In the case of “Ac-C(X1)TAEGIKKFEGDGYELFKDNFPAGEKFDNDDTNDQFYTVIF-NH2 [Cy5-MUB40#1]”, the “labelling of colonic mucus layer and infiltrated neutrophils” value [1] is reported as “labelled”, the “labelling of human neutrophil granules” value ([2]; listed as MUB40#1-Cy5) is reported as “granular staining” and the “labelling of human neutrophil granules” value ([2]; listed as MUB40-Cy5) is reported as “specifically labeled”. The “labelling of recruited neutrophils” value [3] was “specifically labeled”.
